# Test results published in patent US12559471B2, “1,5-dihydro-2,4-benzodiazepine-3-one derivative and application thereof” (JIANGSU NHWA PHARMACEUTICAL CO., LTD, priority 2020, dated 2026).
# Where “and” joins values, the source holds several entries; their conditions need not be identical. Identical values can stand only once.
# Tests used:
# C57BL/6j mice = experiment: Investigation of sedation side effects (autonomic activity, movement distance); type: in vivo; conditions: sedation ED50 / PDP efficacy ED50
# Experimental: (§1) 1.3 Investigation of Sedation Side Effects (Anti-Sedation Model)
# (§2) According to different doses of each group, solutions at different concentrations were separately formulated for intraperitoneal injection, with the final administration volume of 10 mL/kg.
# (§3) The movement at 0-20 min was recorded on video, and the movement distance in 20 min was analyzed by Top Scan 3.00 software. The inhibition rate of each group relative to the blank group after the administration were calculated, and the sedation effects of the compounds were comprehensively evaluated in combination with a statistical conclusion.
# [1] = as above; type: in vivo, mice; conditions: mouse, in vivo, ip; C57BL/6j mice, intraperitoneal, 45 min after administration
# Experimental: as §1, §2, §3
# [2] = test system: MPTP+MK-801-induced Parkinson's disease mouse model; experiment: MPTP+MK-801-induced Parkinson's disease mouse model (anti-PDP efficacy model); type: in vivo; conditions: ip, mice, intraperitoneal, read-out: PDP efficacy (high activity) ED50
# Experimental: 1.1 Effect on MPTP+MK-801-induced Parkinson's disease mouse model (anti-PDP efficacy model)
# Animals were injected with different doses of MPTP(1-methyl-4-phenyl-1,2,3,6-tetrahydropyridine) intraperitoneally every morning for 5 consecutive days. […] Then, after an interval of 0.25 h, the mice were placed into an autonomous activity test box (a black polyethylene box with the specification of 29 cm×29 cm×30 cm) for video recording for 20 min. Video analysis was performed after the video recording to evaluate the activity of the mice.
# [3] = test system: DOI-induced PPI impairment in rats; experiment: DOI-induced PPI impairment test in rats (intervention test); type: in vivo; conditions: DOI 0.5 mg/kg
# Experimental: 3. DOI ((f)-1-(2,5-dimethoxy-4-iodophenyl)-2-aminopropane hydrochloride or (f)-2,5-dimethoxy-4-iodoamphetamine hydrochloride) induced PPI impairment effect test in rats
# 30 min after the intragastric administration of a drug (or a vehicle) and 30 min after the subcutaneous injection of DOI at 0.5 mg/kg at the neck, namely 60 min after the intragastric administration, the rats were placed into a startle reflex test box for testing.
# The test was performed according to literature and preliminary experiments, and the specific process was as follows: first an adaptation period of 5 min was given (62 dB background sound), and 5 separate startle reflex stimuli were given after the adaptation period (blockl, results not included in the analysis to reduce the initial response of the animals to a plateau level), followed by 4 different types of tests (block2) presented in a pseudo-random manner, namely: 1) startle reflex stimulus alone (pulse-alone, 120 dB, lasting 20 ms); 2) prepulse stimulus alone 13 dB above the background sound (prepulse-alone, 75 dB, lasting 20 ms); 3) prepulse stimulus in combination with startle reflex stimulus, each lasting 20 ms, with an interval of 100 ms; and 4) no stimulus in which only the background sound was given (no stimulus). Each trial was performed 5 times, with an average interval of 20 s (10-30 s) between trials.
# The response amplitude of the startle reflex stimulus alone or the prepulse stimulus in combination with startle reflex stimulus was expressed as the AVG (instrument-specific unit) value, which indirectly reflects the size of the flinching response of the rat body. Evaluation index: PPI %=(1−response amplitude of prepulse stimulus in combination with startle reflex stimulus/response amplitude of startle reflex stimulus alone)×100. The higher the value is, the greater the degree of the inhibition is.
# 5-HT2C receptor = 5-HT2C receptor (Rattus norvegicus (Rat), UniProt P08909); conditions: read-out: 5-HT2C (Ki value); rat cortex membrane, 3H-Mesulergine
# Experimental: 2) Preparation of 5-HT2C Membrane
# The rat cortex was taken out of a refrigerator at −80° C. and thawed spontaneously. The solution A was added, and the mixture was homogenized for 3-4 s at 4th gear for a total of 4 times and centrifuged at 50000 g for 25 min at 4° C. The supernatant was discarded, and the solution A was added into the precipitate. The mixture was mixed well using a vortex mixer and centrifuged at 50000 g for 25 min at 4° C. (repeated twice). The supernatant was discarded after the centrifugation, and the precipitate was stored at −80° C. for later use.
# 2) Competitive 5-HT2C Receptor Binding Assay
# Step 1: the prepared membrane was suspended in the homogenate B to obtain a 210 mg/mL membrane suspension for later use.
# Step 2: 100 μL of the membrane suspension was added into each reaction tube.
# Step 3: 100 μL of the solution B was added into a total binding tube (TB), 100 μL of Ketanserin (final concentration: 1.0×10^−5 M) was added into a non-specific binding tube (NB), and 100 μL of test compound was added into each compound binding tube (CB).
# Step 4: 10 μL of radioligand ^3H-Mesulergine was added into each reaction tube to reach a final concentration of 3 nM.
# Step 5: each reaction tube was incubated at 37° C. for 25 min. After the reaction was completed, the binding ligands were rapidly filtered under reduced pressure, wherein the Whatman test paper GF/C was washed with 0.5% PEI solution 1 h in advance. The filter membrane was fully washed with cold Tris buffer solution, taken out and put into a 4 mL scintillation disc, which was then added with 1 mL toluene scintillation solution and shaken for mixing well.
# Step 6: the scintillation disc was put into a liquid scintillation counter for counting.
# [4] = test system: MK-801-induced high activity behavior of mice; experiment: Dizocilpine (MK-801)-induced high activity test in mice; type: in vivo; conditions: Mus musculus, 1 h, intragastric, MK-801 0.3 mg/kg i.p., 60 min, read-out: ED50 for inhibiting the MK-801-induced high activity behavior
# 5-HT2A receptor = 5-HT2A receptor (Homo sapiens (Human), UniProt P28223); experiment: Competitive 5-HT2A receptor binding assay (3H-Ketanserin, CHO-5-HT2A membrane)
# Experimental: 1) Preparation of CHO-5-HT2A Receptor Membrane
# The precipitate was collected, and the supernatant was discarded. The solution B was added into the precipitate. […] The supernatant was carefully discarded, and the solution B was added into the precipitate again. […] The precipitate obtained was stored at −80° C.
# 1) Competitive 5-HT2A Receptor Binding Assay
# Step 2: 100 μL of the membrane preparation was added into each reaction tube.
# After the filtration, the filter membrane was dried at 60° C. and added into a scintillation disc attached with a bottom membrane, which was then added with 40 μL of scintillation liquid, sealed with a top membrane, and left to stand.
# hERG potassium channel = hERG potassium channel (Homo sapiens (Human), UniProt Q12809); experiment: In vitro hERG assay, whole-cell patch clamp in HEK-293 cells; type: cell-based; conditions: HEK-293 cells stably expressing hERG, room temperature
# Experimental: b. […] The working solutions of the test compounds were ultrasonically treated for 20 min.
# The cell suspension was gently pipetted to separate the aggregated cells.
# Under an inverted microscope, recording electrodes were controlled by a glass electrode micromanipulator (micromanipulation) to contact with the cell. […] After forming the GΩ seal, a rapid capacitance compensation was given.
# Negative control and test compounds flowed through the recording chamber in an ascending order of concentration by gravity perfusion to quickly act on the cells. During the recording, the extracellular fluid was continuously circulated by a vacuum pump. […] Each concentration was allowed to act for 5 min or until the current was stabilized. All experiments were performed at room temperature.
# [formula] Basic statistics were calculated for each concentration, including mean, standard deviation (SD), standard error (SE), and replicates (n). The dose-dependent curve was fitted with the following equation and the half maximal inhibitory concentration (IC50) of the test compounds was calculated:
# Curve fitting and calculation of IC50 were performed by GraphPad Prism 5.0 software. 5. Experimental Results
# Sequence of 5-HT2A receptor (P28223 whole entry): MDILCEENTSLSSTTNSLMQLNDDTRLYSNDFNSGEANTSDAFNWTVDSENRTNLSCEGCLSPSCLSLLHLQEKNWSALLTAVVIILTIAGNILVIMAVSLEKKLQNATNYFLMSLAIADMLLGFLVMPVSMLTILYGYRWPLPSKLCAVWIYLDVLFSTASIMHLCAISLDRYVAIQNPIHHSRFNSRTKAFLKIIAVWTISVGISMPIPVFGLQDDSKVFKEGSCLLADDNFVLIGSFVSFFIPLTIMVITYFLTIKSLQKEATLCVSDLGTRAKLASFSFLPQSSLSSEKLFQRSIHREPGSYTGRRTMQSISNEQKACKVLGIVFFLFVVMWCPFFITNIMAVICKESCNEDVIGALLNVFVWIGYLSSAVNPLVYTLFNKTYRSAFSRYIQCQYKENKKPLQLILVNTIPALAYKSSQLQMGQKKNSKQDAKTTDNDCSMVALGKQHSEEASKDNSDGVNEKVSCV
# Sequence of 5-HT2C receptor (P08909 33-460): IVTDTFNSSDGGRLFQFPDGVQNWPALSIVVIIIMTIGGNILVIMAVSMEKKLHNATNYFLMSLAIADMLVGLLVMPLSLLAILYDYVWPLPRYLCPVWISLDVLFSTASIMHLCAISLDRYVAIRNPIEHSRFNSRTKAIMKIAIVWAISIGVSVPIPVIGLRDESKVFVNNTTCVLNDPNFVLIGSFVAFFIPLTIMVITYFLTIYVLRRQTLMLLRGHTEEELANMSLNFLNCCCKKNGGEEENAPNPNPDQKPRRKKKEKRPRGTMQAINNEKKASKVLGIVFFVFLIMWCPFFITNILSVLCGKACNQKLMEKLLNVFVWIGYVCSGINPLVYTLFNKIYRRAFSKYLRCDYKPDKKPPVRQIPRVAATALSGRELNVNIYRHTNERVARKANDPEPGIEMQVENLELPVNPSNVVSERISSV
# Sequence of hERG potassium channel (Q12809 whole entry): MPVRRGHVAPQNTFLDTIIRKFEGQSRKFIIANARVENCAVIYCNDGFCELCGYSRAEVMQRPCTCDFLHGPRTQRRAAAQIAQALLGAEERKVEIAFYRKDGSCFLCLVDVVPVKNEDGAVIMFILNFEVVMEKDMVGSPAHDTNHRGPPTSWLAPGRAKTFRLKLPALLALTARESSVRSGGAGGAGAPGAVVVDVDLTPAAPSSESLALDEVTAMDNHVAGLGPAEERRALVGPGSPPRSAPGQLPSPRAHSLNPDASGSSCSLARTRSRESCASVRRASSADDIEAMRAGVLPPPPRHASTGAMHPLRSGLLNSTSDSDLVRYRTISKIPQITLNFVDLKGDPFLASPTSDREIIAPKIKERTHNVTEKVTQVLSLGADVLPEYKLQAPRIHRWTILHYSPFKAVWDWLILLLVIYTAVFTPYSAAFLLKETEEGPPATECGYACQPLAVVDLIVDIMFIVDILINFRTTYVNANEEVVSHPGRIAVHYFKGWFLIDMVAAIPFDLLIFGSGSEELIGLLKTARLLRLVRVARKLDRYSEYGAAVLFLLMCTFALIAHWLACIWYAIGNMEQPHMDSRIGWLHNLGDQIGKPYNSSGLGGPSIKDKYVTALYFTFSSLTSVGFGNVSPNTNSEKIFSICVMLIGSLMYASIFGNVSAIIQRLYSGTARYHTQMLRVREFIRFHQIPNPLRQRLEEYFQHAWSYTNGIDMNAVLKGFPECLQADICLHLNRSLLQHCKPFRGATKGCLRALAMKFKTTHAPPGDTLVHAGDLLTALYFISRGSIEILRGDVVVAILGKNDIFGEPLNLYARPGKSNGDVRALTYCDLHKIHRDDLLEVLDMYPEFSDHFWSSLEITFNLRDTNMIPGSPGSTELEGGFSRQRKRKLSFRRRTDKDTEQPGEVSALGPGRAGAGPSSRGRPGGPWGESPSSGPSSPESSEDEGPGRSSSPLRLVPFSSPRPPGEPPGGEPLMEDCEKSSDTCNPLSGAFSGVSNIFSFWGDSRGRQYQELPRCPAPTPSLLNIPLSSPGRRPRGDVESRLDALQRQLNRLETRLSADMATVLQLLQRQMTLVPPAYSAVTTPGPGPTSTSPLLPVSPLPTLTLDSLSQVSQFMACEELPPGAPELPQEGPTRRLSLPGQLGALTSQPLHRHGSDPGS
structure (smiles),measurement,setting,value
"CC(C)COc1ccc(CN2Cc3ccc(F)cc3CN(C3CCN(C)CC3)C2=O)cc1 [NH-K-A19005, 8-fluoro-2-(1-methylpiperidin-4-yl)-4-[[4-(2-methylpropoxy)phenyl]methyl]-1,5-dihydro-2,4-benzo diazepine-3-one]",Ratio of sedation ED50 to PDP efficacy ED50,C57BL/6j mice,10.8
same,ED50 at 45 min,[1],20 mg/kg
same,ED50,[2],1.85 mg/kg
same,reversal of DOI-induced PPI impairment,"[3]; 3 mg/kg, P<0.05",significantly reverse
same,"PPI %, MEAN",[3]; 1 mg/kg intragastric,40.15%
same,"PPI %, individual animal",[3]; 1 mg/kg intragastric,55.27% and 13.13% and 49.29% and 40.22% and 11.24% and 71.74%
same,"PPI %, MEAN",[3]; 3 mg/kg intragastric,42.95%
same,"PPI %, individual animal",[3]; 3 mg/kg intragastric,36.23% and 53.57% and 36.93% and 47.37% and 45.54% and 61.94% and 38.90% and 23.16%
same,"PPI %, MEAN",[3]; 10 mg/kg intragastric,52.40%
same,"PPI %, individual animal",[3]; 10 mg/kg intragastric,86.67% and 28.57% and 78.84% and 65.78% and 63.08% and 0.38% and 52.03% and 43.86%
same,Ki,5-HT2C receptor,3.39 nM
same,ED50,[4],1.01 mg/kg
same,Ki,"5-HT2A receptor; CHO-5-HT2A membrane, 3H-Ketanserin, read-out: 5-HT2A (Ki value)",0.429 nM
same,2C/2A,5-HT2A receptor; ratio of 5-HT2C Ki to 5-HT2A Ki,7.907
same,IC50,hERG potassium channel,3170 nM
